In patent US11213546B2, “Methods to mobilize tissue resident cells for adoptive t cell therapy” (Emory University, priority 2017, dated 2022):

Tested on: circulating CD8+ TSP cells and CD34+ SP+ HSCs
Conditions: human peripheral blood
Text: Peripheral blood mononuclear cells (PBMCs) from healthy donors were isolated from buffy coats purchased from New York Blood Center. Gut T cells were obtained from uninvolved intestine in patients undergoing surgery for diverticular disease or gut biopsies. Bone marrow aspirates were obtained from patients with cancer undergoing diagnostic bone marrow biopsies. In some patients, blood samples were collected before and after stem cell mobilization protocol with plerixafor. […] The cells were then washed in ice-cold Hoechst wash buffer and analyzed with BD LSR-II containing UV laser.

Compound: c1cc(CN2CCCNCCNCCCNCC2)ccc1CN1CCCNCCNCCCNCC1 [plerixafor, Plerixafor]
- circulating CD8+ TSP cells (baseline vs after mobilization, within 24 hours of injection, n=6): marked increase
- mobilization of CD34+ SP+ HSCs (concurrent with the CD8+ TSP increase): mobilization
